From patent publication EP0481701B1, “Treatment composition” (priority 1990, dated 1992)

Legend:
Strep. sanguis (CR2b) = assay: bacterial regrowth assay (antibacterial efficacy of Triclosan delivered in targeted liposomes); type: cell-based
Procedure: Liposomes were prepared by the reverse phase evaporation procedure referred to above incorporating Triclosan in the lipid mixture. Some of the liposome samples were prepared with concanavalin A (ConA) conjugated to their surface. Details are as follows: (a) Derivatisation of ConA with SATA 2.5µl of a stock solution containing 9.08mg N-succinimidyl-S-acetyl thioacetate (SATA) in 50µl dimethylformamide was added to ConA solution (10mg in 2.5ml phosphate (50mM) - EDTA (1mM) buffer, pH7.5) at room temperature. After reaction (15min) the derivatised protein (s-ConA) was separated from unreacted SATA by gel filtration on a Sephadex G-50 column (15 x 2cm). The s-ConA was activated by deacetylation using, for each 2ml of protein solution, 200µl of 0.1M hydroxylamine solution, made up in 2.5mM EDTA with sufficient solid Na₂HPO₄ added to bring the pH to 7.5. (b) Preparatlon of DPPE-MBS 40mg L-α-dipalmitoylphosphatidylethanolamine (DPPE) was dissolved in a mixture of 16ml dry chloroform, 2ml dry methanol and 20mg dry triethylamine. 20mg maleimidobenzoyl-N-hydroxysuccinimide ester (MBS) was added and the reaction mixture was stirred under nitrogen at room temperature for 24h, after which the organic phase was washed three times with phosphate buffered saline (PBS, pH7.3) to remove unreacted MBS. The DPPE-MBS derivative was recovered from the organic phase by rotary evaporation and was stored in a chloroform/methanol mixture (9:1 v/v) at 4°C. (c) Preparation of liposomes 27mg dipalmitoylphosphatidylcholine (DPPC), 3mg phosphatidylinositol (PI, from wheat germ) and 3mg DPPE-MBS were dissolved in 9ml chloroform/methanol mixture (4:1 v/v). […] The fractions collected were analysed for phospholipid and Triclosan by scintillation counting. Particle sizes of the liposomes were determined by photon correlation spectroscopy, following the method described in Hutchinson et al., Biochim. […] (e) Assessment of efficacy The antibacterial efficacy of Triclosan delivered in targeted liposomes was assessed using a bacterial regrowth assay. […]

[1] = solubility of Triclosan in PBS (remark in the method); type: physicochemical; conditions: PBS without ethanol
Procedure: Liposomes were prepared by the reverse phase evaporation procedure referred to above incorporating Triclosan in the lipid mixture. Some of the liposome samples were prepared with concanavalin A (ConA) conjugated to their surface. Details are as follows: (a) Derivatisation of ConA with SATA 2.5µl of a stock solution containing 9.08mg N-succinimidyl-S-acetyl thioacetate (SATA) in 50µl dimethylformamide was added to ConA solution (10mg in 2.5ml phosphate (50mM) - EDTA (1mM) buffer, pH7.5) at room temperature. After reaction (15min) the derivatised protein (s-ConA) was separated from unreacted SATA by gel filtration on a Sephadex G-50 column (15 x 2cm). The s-ConA was activated by deacetylation using, for each 2ml of protein solution, 200µl of 0.1M hydroxylamine solution, made up in 2.5mM EDTA with sufficient solid Na₂HPO₄ added to bring the pH to 7.5. […] The fractions collected were analysed for phospholipid and Triclosan by scintillation counting. Particle sizes of the liposomes were determined by photon correlation spectroscopy, following the method described in Hutchinson et al., Biochim. […] (e) Assessment of efficacy The antibacterial efficacy of Triclosan delivered in targeted liposomes was assessed using a bacterial regrowth assay. […]

Question: With Oc1cc(Cl)ccc1Oc1ccc(Cl)cc1Cl [Triclosan in solution, 2,4,4'-trichloro-2'-hydroxy diphenyl ether] as the molecule, how does the “% inhibition of growth incubated with saliva” value (Strep. sanguis (CR2b); 1min exposure, PBS plus human saliva (1:1), 5µg Triclosan in 100µl PBS with 10% ethanol) read?
Answer: 3%

Question: And the “% inhibition of growth without saliva” value (Strep. sanguis (CR2b); 1min exposure, PBS, no saliva, 5µg Triclosan in 100µl PBS with 10% ethanol)?
Answer: 8%

Question: And the “% inhibition of growth” value (Strep. sanguis (CR2b); relative to PBS alone, 2h exposure at 37°C, regrowth 18h, optical density at 630nm, PBS containing 10% ethanol, total Triclosan 10µg (free, liposomes with ConA) or 20µg (liposomes without ConA) in 100µl)?
Answer: 75%

Question: And the “solubility in PBS alone” value [1]?
Answer: virtually insoluble
